Data as given in patent publication US5475028A (Zaidan Hojin Seisan Kaihatsu Kagaku Kenkyusho, priority 1992, dated 1995).

Tests used:
[1] = system: Isolated liver cells of rats; experiment: Anti-hepatitis test: disorder of the isolated liver cells, antibody against rat liver cell membranes; format: cell-based; settings: antiserum against rat liver cell membranes, test substance 0.1 mg/ml solution, 1 ml added to 2 ml, supernatant, Table 3, n = 8, * p < 0.05
Procedure: (2) Disorder of the isolated liver cells
b. Antibody against rat liver cell membranes
Isolated liver cells of rats were prepared by means of Segren's collagenase irrigation method, whereby a liver cell suspension was prepared at a concentration of 6×10^8 liver cells/mi. An Erlenmeyer flask of a 10 ml capacity in which 2 ml of the suspension had been placed was saturated with 95% oxygen, and after the flask was tightly stoppered, preincubation was carried out at 37° C. for 5 min. One ml of a test substance solution prepared at a concentration of 0.1 mg/ml Hunk's solution was added to the liver cell suspension, while 1 ml of the Hunk's solution was added to the control, followed by incubation for another 5 min, and antiserum against rat liver cell membranes (a 50-fold diluted serum) was added. A specifically determined volume of the reaction solution was pipetted out 0 and 30 min after the initiation of reaction, respectively, and immediately centrifuged under 500 g for 30 seconds, and the ALT, AST and LDH as leached out into the supernatant liquid were determined for activity by the Lippie method.

[2] = system: Liver disorder (hepatopathy) in mice; experiment: Anti-hepatitis test: liver disorder (hepatopathy) in mice, carbon tetrachloride; format: in vivo, dyy-strain male mice; settings: carbon tetrachloride i.p., test substance 1.0 mg/ml i.p. 3 h later, blood at 24 h, Table 1, * p < 0.05
Procedure: (1) Liver disorder (hepatopathy) in mice A group of 8 dyy-strain male mice (weighing 23 to 25 g), kept fasting from the previous day was treated by intraperitoneal injection of a 25% solution of carbon tetrachloride in olive oil at a dose of […] and thereafter allowed free access to food. Three hours after the administration of carbon tetrachloride, the mice were given a 1.0 mg/ml concentrated suspension of the test substance, as prepared in conjunction with powdered gum arabic, by intra-peritoneal injection at a dose of 0.1 ml/body weight. Twenty four hours after the administration of carbon tetrachloride, blood samples were drawn from the mice under anesthesia with ether through the abdominal descending aorta.

[3] = system: Isolated liver cells of rats; experiment: Anti-hepatitis test: disorder of the isolated liver cells, carbon tetrachloride; format: cell-based; settings: isolated rat liver cells, carbon tetrachloride vapor; test substance 0.1 mg/ml solution, 1 ml added to 2 ml; supernatant; Table 2; n = 8; * p < 0.05
Procedure: (2) Disorder of the isolated liver cells a. Carbon tetrachloride Isolated liver cells of rats were prepared by means of […] collagenase irrigation method, whereby a liver cell suspension was prepared to a concentration of 6×10^8 liver cells/mi. Into 2 ml of the suspension in an Erlenmeyer flask of a 10 ml capacity was put a test tube of about 0.5 capacity containing carbon tetrachloride to saturate the reaction system with carbon tetrachloride vapor, and after the flask was tightly stoppered, preincubation was carried out at 37° C. for 5 min. One ml of a test substance solution prepared at a concentration of 0.1 mg/ml Hunk's solution was added to the suspension of liver cells, while 1 ml of Hunk's solution was added to the control.

mice = experiment: Acute toxicity test; format: in vivo, Male, SLC:ICR (SPE) mice; settings: oral
Procedure: Male, SLC:ICR (SPE) mice weighing 20 g, divided into groups each consisting of 5 heads, were treated by oral administration of the test compound suspended in gum arabic at doses of 1,000 mg/kg, 1,500 mg/kg and 2,500 mg/kg test compound, followed by observation for any abnormalities.

[4] = system: Stomach injury with hydrochloric acid/ethanol; experiment: Anti-ulcer test: stomach injury with hydrochloric acid/ethanol; format: in vivo, male rats of KBL Wistar strain; settings: rats; for Suppression rate: 30 min before hydrochloric acid/ethanol, ulcer length
Procedure: (1) Stomach injury with hydrochloric acid/ethanol:
Rats weighing 193 to 228 g were fasted with free access to water for 24 hours before being used in the experiment. The rats were divided into groups each consisting of 10 heads in such a way as their mean body weights were nearly uniform, treated through oral administration of hydrochloric acid/ethanol (0.15 mole hydrochloric acid solution in 80% ethanol) at a dose of 5 ml/kg body weight and sacrificed through cervical vertebrae dislocation 1 hour after administration. The stomachs were removed and treated with formalin, and individual ulcers formed in the glandula portion of the stomach were measured in length (mm), with the measured ulcer lengths being summed for each rat. The test substance was suspended in a 0.5% aqueous solution of sodium carboxymethylcellulose, and the suspension was given to the test group orally at a dose of 10 ml/kg body weight 30 min before administration of hydrochloric acid/ethanol, whereas the vehicle alone was applied to the control group.

[5] = Overall anti-hepatitis, liver-function improving and anti-ulcer activities (summary of tests)
[6] = system: Stomach injury through water-immersion constraint stress; experiment: Anti-ulcer test: stomach injury through water-immersion constraint stress; format: in vivo, male rats of KBL Wistar strain; settings: rats; for Suppression rate: 30 min before water-soaking constraint, 7 h, ulcer length, * p < 0.05
Procedure: (2) Stomach injury through water-immersion constraint stress
Rats weighing 183 to 235 g were fasted with free access to water for 24 hours before being used in the experiment. The rats were divided into groups each consisting of 10 heads in such a way as their mean body weights were nearly uniform, stress-loaded by soaking the animals as placed in a stress cage of Univ. of Tokyo type in a water tank at 23° C. up to the xiphoid and sacrificed through cervical vertebrae dislocation 7 hours later. The stomachs were removed and treated with formalin, and individual ulcers formed in the glandula portion of the stomach were measured in length (mm), with the measured ulcer lengths being summed for each rat. The test substance was suspended in a 0.5% aqueous solution of sodium carboxymethylcellulose, and the suspension was given to the test group orally at a dose of 10 ml/kg body weight 30 min before the water-soaking constraint, whereas the vehicle alone was applied to the control group.

Compound | ALT, mean ± S.D. [1] [IU] | AST, mean ± S.D. [1] [IU] | LDH, mean ± S.D. [1] [IU] | ALT, mean ± S.D. [2] [IU] | AST, mean ± S.D. [2] [IU] | LDH, mean ± S.D. [2] [IU] | ALT, mean ± S.D. [3] [IU] | AST, mean ± S.D. [3] [IU] | LD50 (mice) | deaths (mice; doses up to 2,500 mg/kg) | Suppression rate ([4]; 50 mg/kg oral) [%] | Suppression rate ([4]; 100 mg/kg oral, * p < 0.01) [%] | Suppression rate ([4]; 200 mg/kg oral, * p < 0.01) [%] | UD50 ([4]; oral, hydrochloric acid/ethanol, 95% C.L. 83.4~94.3, 60 min) [mg/kg] | anti-hepatitis, liver-function improving and anti-ulcer activities [5] | suppression against increases in activities of ALT, AST and LDH ([5]; Tables 1 to 3, as compared with the control compounds currently in use) | Suppression rate ([6]; 50 mg/kg oral) [%] | Suppression rate ([6]; 100 mg/kg oral) [%] | Suppression rate ([6]; 200 mg/kg oral) [%] | UD50 ([6]; oral, water-immersion constraint stress, 95% C.L. 97.9~113, 420 min) [mg/kg]
N[C@@H](CCC(=O)N[C@@H](CS)C(=O)NCC(=O)O)C(=O)O [Glutathione] | 2257.8 ± 581.6 | 1759.4 ± 394.3 | 2541.1 ± 563.4 | 19423.1 ± 1042.3 | 9643.6 ± 3874.3 | 32392 ± 7906 | 1176.1 ± 123.7 | 321.7 ± 94.4 | – | – | – | – | – | – | – | – | – | – | – | –
CC1(C)[C@@H](O[C@H]2O[C@H](C(=O)O)[C@@H](O)[C@H](O)[C@H]2O[C@@H]2O[C@H](C(=O)O)[C@@H](O)[C@H](O)[C@H]2O)CC[C@]2(C)[C@H]3C(=O)C=C4[C@@H]5C[C@@](C)(C(=O)O)CC[C@]5(C)CC[C@@]4(C)[C@]3(C)CC[C@@H]12 [Glycyrrhizin] | 1764.8 ± 437.1 | 1358.4 ± 324.1 | 2163.1 ± 562.7 | 8339.3 ± 2420.1 | 8949.6 ± 4530.0 | 26457 ± 11086 | 1089.7 ± 210.2 | 267.8 ± 78.1 | – | – | – | – | – | – | – | – | – | – | – | –
CC(S)C(=O)NCC(=O)O (centres unmarked) [Thiopronine] | 1826.5 ± 479.5 | 1623.7 ± 432.8 | 2583.7 ± 634.1 | 4941.2 ± 1537.7 | 4884.5 ± 1097.5 | 26789 ± 9753 | 1426.9 ± 199.5 | 956.8 ± 219.5 | – | – | – | – | – | – | – | – | – | – | – | –
Zinc-[bis(2-aminoethanesulfonic acid).bis(sodium 2-aminoethanesulfonate)] [FTZ] | 1429.5 ± 327.8 | 1025.8 ± 268.4 | 1875.3 ± 437.1 | 4265.7 ± 1347.6 | 3215.8 ± 967.7 | 15865 ± 5300.8 | 1107.1 ± 168.8 | 345.7 ± 72.8 | > 2,500 mg/kg | did not cause any animal to die | 32.1 | 53.5 | 74.9 | 88.7 | exhibits anti-hepatitis, liver-function improving and anti-ulcer activities | significantly enhanced suppression | 26.4 | 56.1 | 64.5 | 105
